Measurements taken from US10370412B2, “Beta-hairpin peptidomimetics” (Polyphor AG, priority 2013, dated 2019).
Where a SMILES comes first, the peptide text is derived from it. [ ]: non-standard residue; d: D form. Pro(3S-OH) = O=C(O)[C@H]1NCC[C@@H]1O; Cha = N[C@@H](CC1CCCCC1)C(=O)O; aThr = C[C@H](O)[C@H](N)C(=O)O; Tle = CC(C)(C)[C@H](N)C(=O)O; dDab = NCC[C@@H](N)C(=O)O; hSer = N[C@@H](CCO)C(=O)O; Orn = NCCC[C@H](N)C(=O)O; Dab = NCC[C@H](N)C(=O)O

System: human red blood cells (hRBC)
Format: cell-based
Conditions: red cells of human, 1 h
Experimental: The peptides were tested for their hemolytic activity against human red blood cells (hRBC). Fresh hRBC were washed three times with phosphate buffered saline (PBS) and centrifuged for 10 min at 2000×g. Compounds (100 μg/ml) were incubated with 20% hRBC (v/v) for 1 h at 37° C. and shaking at 300 rpm. The final erythrocyte concentration was approximately 0.9×10^9 cells/ml. A value of 0% and 100% cell lyses, respectively, was determined by incubation of hRBC in the presence of PBS containing 0.001% acetic acid and 2.5% Triton X-100 in H2O, respectively. The samples were centrifuged, the supernatants were 8-fold diluted in PBS buffer and the optical densities (OD) were measured at 540 nm. The 100% lyses value (OD540H2O) gave an OD540 of approximately 0.5-1.0. Percent hemolysis was calculated as follows: (OD540peptide/OD540H2O)×100%.

SMILES | Hemolysis at 100 μg/ml
C[C@@H]1NC(=O)[C@H](C(C)(C)C)NC(=O)[C@H](CCN)NC(=O)[C@H](Cc2c[nH]c3ccccc23)NC(=O)[C@H](CCN)NC(=O)[C@H](CCN)NC(=O)[C@H](CCCN)NC(=O)[C@H](CCN)NC(=O)[C@H](Cc2ccc(O)cc2)NC(=O)[C@H](Cc2c[nH]cn2)NC(=O)[C@H](Cc2c[nH]c3ccccc23)NC(=O)[C@@H]2CCCN2C(=O)[C@H]2CCCN2C(=O)[C@H](CO)NC1=O [compound 18, cyclo(-Trp-His-Tyr-Dab-Orn-Dab-Dab-Trp-Dab-tBuGly-Ala-Ser-^DPro-Pro-)] (cyclo(WHY[Dab][Orn][Dab][Dab]W[Dab][Tle]AS[dP]P)) | 0%
C[C@@H]1NC(=O)[C@H](CC2CCCCC2)NC(=O)[C@H](CCN)NC(=O)[C@H](Cc2c[nH]c3ccccc23)NC(=O)[C@H](CCN)NC(=O)[C@@H](CCN)NC(=O)[C@H](CCCN)NC(=O)[C@H](CCN)NC(=O)[C@H](C(C)(C)C)NC(=O)[C@H](Cc2c[nH]c3ccccc23)NC(=O)[C@H](Cc2c[nH]c3ccccc23)NC(=O)[C@@H]2CCCN2C(=O)[C@H]2CCCN2C(=O)[C@H](CO)NC1=O [compound 12, cyclo(-Trp-Trp-tBuGly-Dab-Orn-^DDab-Dab-Trp-Dab-Cha-Ala-Ser-^DPro-Pro-)] (cyclo(WW[Tle][Dab][Orn][dDab][Dab]W[Dab][Cha]AS[dP]P)) | 3%
CC(C)C[C@@H]1NC(=O)[C@@H]2CCCN2C(=O)[C@H]2CCCN2C(=O)[C@H](CO)NC(=O)[C@H](C)NC(=O)[C@H](C(C)(C)C)NC(=O)[C@H](CCN)NC(=O)[C@H](Cc2c[nH]c3ccccc23)NC(=O)[C@H](CCN)NC(=O)[C@@H](CCN)NC(=O)[C@H](CCCN)NC(=O)[C@H](CCN)NC(=O)[C@H](Cc2c[nH]c3ccccc23)NC(=O)[C@H](Cc2c[nH]cn2)NC1=O [compound 24, cyclo(-Leu-His-Trp-Dab-Orn-^DDab-Dab-Trp-Dab-tBuGly-Ala-Ser-^DPro-Pro-)] (cyclo(LHW[Dab][Orn][dDab][Dab]W[Dab][Tle]AS[dP]P)) | 1%
C[C@@H]1NC(=O)[C@H](C(C)(C)C)NC(=O)[C@H](CCO)NC(=O)[C@H](Cc2c[nH]c3ccccc23)NC(=O)[C@H](CCN)NC(=O)[C@@H](CCN)NC(=O)[C@H](CCCN)NC(=O)[C@H](CCN)NC(=O)[C@H](Cc2ccc(O)cc2)NC(=O)[C@H](Cc2c[nH]cn2)NC(=O)[C@H](Cc2c[nH]c3ccccc23)NC(=O)[C@@H]2CCCN2C(=O)[C@H]2CCCN2C(=O)[C@H](CO)NC1=O [Ex. 1, cyclo(-Trp-His-Tyr-Dab-Orn-^DDab-Dab-Trp-Hse-tBuGly-Ala-Ser-^DPro-Pro-)] (cyclo(WHY[Dab][Orn][dDab][Dab]W[hSer][Tle]AS[dP]P)) | 1%
CC[C@H](C)[C@@H]1NC(=O)[C@H](CCN)NC(=O)[C@H](Cc2c[nH]c3ccccc23)NC(=O)[C@H](CCN)NC(=O)[C@@H](CCN)NC(=O)[C@H](CCCN)NC(=O)[C@H](CCN)NC(=O)[C@H](Cc2ccc(O)cc2)NC(=O)[C@H](Cc2c[nH]cn2)NC(=O)[C@H]([C@@H](C)CC)NC(=O)[C@@H]2CCCN2C(=O)[C@H]2CCCN2C(=O)[C@H](CO)NC(=O)[C@H](C)NC1=O [compound 21, cyclo(-Ile-His-Tyr-Dab-Orn-^DDab-Dab-Trp-Dab-Ile-Ala-Ser-^DPro-Pro-)] (cyclo(IHY[Dab][Orn][dDab][Dab]W[Dab]IAS[dP]P)) | 1%
CC(C)(C)[C@@H]1NC(=O)[C@H](CCN)NC(=O)[C@H](Cc2c[nH]c3ccccc23)NC(=O)[C@H](CCN)NC(=O)[C@@H](CCN)NC(=O)[C@H](CCCN)NC(=O)[C@H](CCN)NC(=O)[C@H](CC2CCCCC2)NC(=O)[C@H](Cc2c[nH]c3ccccc23)NC(=O)[C@H](Cc2c[nH]c3ccccc23)NC(=O)[C@@H]2[C@@H](O)CCN2C(=O)[C@H]2CCCN2C(=O)[C@H](CO)NC(=O)[C@H](CO)NC1=O [Ex. 15, cyclo(-Trp-Trp-Cha-Dab-Orn-^DDab-Dab-Trp-Dab-tBuGly-Ser-Ser-^DPro-Pro((3S)OH)—)] (cyclo(WW[Cha][Dab][Orn][dDab][Dab]W[Dab][Tle]SS[dP][Pro(3S-OH)])) | 0%
CC(C)[C@@H]1NC(=O)[C@H](C(C)(C)C)NC(=O)[C@H](CCN)NC(=O)[C@H](Cc2c[nH]c3ccccc23)NC(=O)[C@H](CCN)NC(=O)[C@@H](CCN)NC(=O)[C@H](CCCN)NC(=O)[C@H](CCN)NC(=O)[C@H](CC2CCCCC2)NC(=O)[C@H](Cc2c[nH]cn2)NC(=O)[C@H](Cc2c[nH]c3ccccc23)NC(=O)[C@@H]2CCCN2C(=O)[C@H]2CCCN2C(=O)[C@H](CO)NC1=O [compound 4, cyclo(-Trp-His-Cha-Dab-Orn-^DDab-Dab-Trp-Dab-tBuGly-Val-Ser-^DPro-Pro-)] (cyclo(WH[Cha][Dab][Orn][dDab][Dab]W[Dab][Tle]VS[dP]P)) | 5%
C[C@@H]1NC(=O)[C@H](C(C)(C)C)NC(=O)[C@H](CCN)NC(=O)[C@H](Cc2c[nH]c3ccccc23)NC(=O)[C@H](CCN)NC(=O)[C@@H](CCN)NC(=O)[C@H](CCCCN)NC(=O)[C@H](CCN)NC(=O)[C@H](CC2CCCCC2)NC(=O)[C@H](Cc2c[nH]c3ccccc23)NC(=O)[C@H](Cc2c[nH]c3ccccc23)NC(=O)[C@@H]2CCCN2C(=O)[C@H]2CCCN2C(=O)[C@H](CO)NC1=O [Ex. 11, cyclo(-Trp-Trp-Cha-Dab-Lys-^DDab-Dab-Trp-Dab-tBuGly-Ala-Ser-^DPro-Pro-)] (cyclo(WW[Cha][Dab]K[dDab][Dab]W[Dab][Tle]AS[dP]P)) | 1%
CC(C)C[C@@H]1NC(=O)[C@@H]2CCCN2C(=O)[C@H]2CCCN2C(=O)[C@H](CO)NC(=O)[C@H](C)NC(=O)[C@H](C(C)(C)C)NC(=O)[C@H](CCN)NC(=O)[C@H](Cc2c[nH]c3ccccc23)NC(=O)[C@H](CCN)NC(=O)[C@@H](CCN)NC(=O)[C@H](CCCN)NC(=O)[C@H](CCN)NC(=O)[C@H](Cc2ccc(O)cc2)NC(=O)[C@H](Cc2c[nH]cn2)NC1=O [compound 5, cyclo(-Leu-His-Tyr-Dab-Orn-^DDab-Dab-Trp-Dab-tBuGly-Ala-Ser-^DPro-Pro-)] (cyclo(LHY[Dab][Orn][dDab][Dab]W[Dab][Tle]AS[dP]P)) | 0%
CC(C)C[C@@H]1NC(=O)[C@@H]2CCCN2C(=O)[C@H]2CCCN2C(=O)[C@H](CO)NC(=O)[C@H](CO)NC(=O)[C@H](CC2CCCCC2)NC(=O)[C@H](CCN)NC(=O)[C@H](Cc2c[nH]c3ccccc23)NC(=O)[C@H](CCN)NC(=O)[C@@H](CCN)NC(=O)[C@H](CCCN)NC(=O)[C@H](CCN)NC(=O)[C@H](Cc2ccc(O)cc2)NC(=O)[C@H](Cc2c[nH]c3ccccc23)NC1=O [compound 32, cyclo(-Leu-Trp-Tyr-Dab-Orn-^DDab-Dab-Trp-Dab-Cha-Ser-Ser-^DPro-Pro-)] (cyclo(LWY[Dab][Orn][dDab][Dab]W[Dab][Cha]SS[dP]P)) | 3%
CC(C)C[C@@H]1NC(=O)[C@@H]2CCCN2C(=O)[C@H]2CCCN2C(=O)[C@H](CO)NC(=O)[C@H](C)NC(=O)[C@H](C(C)(C)C)NC(=O)[C@H](CCN)NC(=O)[C@H](Cc2c[nH]c3ccccc23)NC(=O)[C@H](CCN)NC(=O)[C@@H](CCN)NC(=O)[C@H](CCCN)NC(=O)[C@H](CCN)NC(=O)[C@H](Cc2c[nH]c3ccccc23)NC(=O)[C@H](Cc2c[nH]c3ccccc23)NC1=O [compound 27, cyclo(-Leu-Trp-Trp-Dab-Orn-^DDab-Dab-Trp-Dab-tBuGly-Ala-Ser-^DPro-Pro-)] (cyclo(LWW[Dab][Orn][dDab][Dab]W[Dab][Tle]AS[dP]P)) | 0%
CC(C)C[C@@H]1NC(=O)[C@@H]2CCCN2C(=O)[C@H]2CCCN2C(=O)[C@H]([C@H](C)O)NC(=O)[C@H](C)NC(=O)[C@H](C(C)(C)C)NC(=O)[C@H](CCN)NC(=O)[C@H](Cc2c[nH]c3ccccc23)NC(=O)[C@H](CCN)NC(=O)[C@@H](CCN)NC(=O)[C@H](CCCN)NC(=O)[C@H](CCN)NC(=O)[C@H](CC2CCCCC2)NC(=O)[C@H](Cc2c[nH]cn2)NC1=O [Ex. 17, cyclo(-Leu-His-Cha-Dab-Orn-^DDab-Dab-Trp-Dab-tBuGly-Ala-alloThr-^DPro-Pro-)] (cyclo(LH[Cha][Dab][Orn][dDab][Dab]W[Dab][Tle]A[aThr][dP]P)) | 5%
CC(C)C[C@@H]1NC(=O)[C@@H]2CCCN2C(=O)[C@H]2CCCN2C(=O)[C@H](CO)NC(=O)[C@H](Cc2ccc(O)cc2)NC(=O)[C@H](C(C)(C)C)NC(=O)[C@H](CCN)NC(=O)[C@H](Cc2c[nH]c3ccccc23)NC(=O)[C@H](CCN)NC(=O)[C@@H](CCN)NC(=O)[C@H](CCCN)NC(=O)[C@H](CCN)NC(=O)[C@H](Cc2ccc(O)cc2)NC(=O)[C@H](Cc2ccc(O)cc2)NC1=O [compound 38, cyclo(-Leu-Tyr-Tyr-Dab-Orn-^DDab-Dab-Trp-Dab-tBuGly-Tyr-Ser-^DPro-Pro-)] (cyclo(LYY[Dab][Orn][dDab][Dab]W[Dab][Tle]YS[dP]P)) | 0%
CC(C)C[C@@H]1NC(=O)[C@@H]2CCCN2C(=O)[C@H]2CCCN2C(=O)[C@H](CO)NC(=O)[C@H](CC(N)=O)NC(=O)[C@H](C(C)(C)C)NC(=O)[C@H](CCN)NC(=O)[C@H](Cc2c[nH]c3ccccc23)NC(=O)[C@H](CCN)NC(=O)[C@@H](CCN)NC(=O)[C@H](CCCN)NC(=O)[C@H](CCN)NC(=O)[C@H](Cc2ccc(O)cc2)NC(=O)[C@H](Cc2ccc(O)cc2)NC1=O [compound 33, cyclo(-Leu-Tyr-Tyr-Dab-Orn-^DDab-Dab-Trp-Dab-tBuGly-Asn-Ser-^DPro-Pro-)] (cyclo(LYY[Dab][Orn][dDab][Dab]W[Dab][Tle]NS[dP]P)) | 5%
